For assay [1], the target named is T1, DgcB (full-length) (Bdellovibrio bacteriovorus, UniProt Q6MPU8).
T1 construct: gene Bd0742; full-length aa 1-310 (own numbering), C-terminal thrombin-cleavable 8xHis tag, E. coli BL21 lambda DE3; dimer with c-di-GMP
T1 sequence (Q6MPU8 11-320): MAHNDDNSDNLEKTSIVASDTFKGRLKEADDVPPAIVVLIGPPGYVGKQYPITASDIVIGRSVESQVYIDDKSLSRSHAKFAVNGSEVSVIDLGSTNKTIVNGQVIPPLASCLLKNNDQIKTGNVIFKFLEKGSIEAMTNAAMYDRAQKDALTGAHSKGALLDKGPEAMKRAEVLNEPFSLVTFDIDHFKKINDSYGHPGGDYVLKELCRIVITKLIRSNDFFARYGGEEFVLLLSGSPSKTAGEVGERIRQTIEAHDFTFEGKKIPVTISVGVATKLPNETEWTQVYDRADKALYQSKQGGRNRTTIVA
Put plainly: X-ray crystal structure, […] Å, co-purified ligand. As to conditions: I-site (RxxD: R218, D221) of both monomers; two c-di-GMP per dimer; product, feedback inhibitor. It is filed as binding.

The target in assay [2] is T2, GGDEF-only construct of DgcB (Bdellovibrio bacteriovorus, UniProt Q6MPU8).
T2 construct: gene Bd0742; GGDEF domain only, aa 148-310 (own numbering), C-terminal thrombin-cleavable 8xHis tag, E. coli BL21 lambda DE3
T2 sequence (Q6MPU8 158-320): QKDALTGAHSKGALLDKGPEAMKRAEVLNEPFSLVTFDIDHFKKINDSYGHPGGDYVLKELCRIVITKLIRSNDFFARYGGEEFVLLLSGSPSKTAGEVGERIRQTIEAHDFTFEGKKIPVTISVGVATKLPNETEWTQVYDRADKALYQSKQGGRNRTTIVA
Put plainly: co-purification of c-di-GMP with the protein. It is filed as binding. To be noted: I-site.

Assay [3] deals with DgcB S15C-S73C-R218A (disulphide-stapled double cysteine mutant), full length (Bdellovibrio bacteriovorus HD100). Put plainly: SEC; non-reducing gel-filtration (buffer without DTT) after overnight incubation with 5 mM oxidised glutathione, sample at 50 mg/ml; sizes calibrated to known standards. Background: In gel filtration, larger molecules generally elute earlier.

“And” between values parts separate entries of the source, which are not always exact repeats. Equal values may be shown once.

`Nc1nc2c(ncn2[C@@H]2O[C@@H]3COP(=O)(O)O[C@H]4[C@@H](O)[C@H](n5cnc6c(=O)[nH]c(N)nc65)O[C@@H]4COP(=O)(O)O[C@H]3[C@H]2O)c(=O)[nH]1` [c-di-GMP]: the “X-ray crystal structure, 1.79 Å, co-purified ligand” value in assay [1] was “The dimer is stabilized by two molecules of c-di-GMP (classically intercalating via their planar bases)”. The “co-purification of c-di-GMP with the protein” value in assay [2] is recorded as “the GGDEF-only construct purifies with a small amount of c-di-GMP at the I-site”.
For orientation: stoichiometry N means the number of molecules, sites or subunits per partner or assembly. As to “DgcB S15C-S73C-R218A (disulphide-stapled double cysteine mutant), full length (enzyme)”, the stoichiometry N in assay [3] was 4 and 2.

Source of the values: paper PMC6733907, “Structural basis for activation of a diguanylate cyclase required for bacterial predation in Bdellovibrio” (Nature Communications, 2019).
